Measured values published in patent publication US6403563B1, “Antitumor composition containing a synergistic combination of an anthracycline derivative with a camptothecin derivate” (Pharmacia & Upjohn S.p.A., priority 1998, dated 2002).
Several values for one entry are separate records, joined by “and”; a condition that tells them apart may be missing. Identical values can stand only once.

Columns and labels:
[1] = tested on: disseminated L1210 murine leukemia; assay: Antileukemic activity against disseminated L1210 leukemia in mice; format: in vivo
Excerpt: For these experiments Ia was solubilized in [Cremophor®/EtOH=6.5:3.5]/[normal saline]=20/80 v/v, while CPT-11 was solubilized in water.

[2] = tested on: intracranially implanted P388 tumor cells; assay: Activity against intracranially transplanted P388 murine leukemia; format: in vivo, mice
Experimental: Brain tumors/metastases are generally unresponsive largely because cytotoxic drugs fail to cross the blood brain barrier. […] The compound was administered i.v. on days 1,5,9. Results reported in Tab.

[3] = Crossing of the blood brain barrier
[4] = CPT-11 alone 20 mg/kg/day iv days +1,2
[5] = Ia alone 2.9 mg/kg/day iv day +3
[6] = Ia alone 3.8 mg/kg/day iv day +3

Q: For `CCc1c2c(nc3ccc(OC(=O)N4CCC(N5CCCCC5)CC4)cc13)-c1cc3c(c(=O)n1C2)COC(=O)[C@]3(O)CC` [CPT-11, Irinotecan, reference compound], which “LTS (Long Term Survivors >60 days)” value [1, 4] is on record?
A: 1/10

Q: What about the “Tox (number of toxic deaths/number of mice)” value [1, 4] of the same compound?
A: without toxicity and 0/10

Q: What about the “ILS % (increase in life span)” value ([1]; CPT-11 alone 20 mg/kg/day iv days +1,2, L1210 10^5/mouse iv day 0) of the same compound?
A: 100%

Q: What does the source list for `CC(=O)C1(O)Cc2c(O)c3c(c(O)c2C(OC2CC(N4CC4)C(OS(C)(=O)=O)C(C)O2)C1)C(=O)c1ccccc1C3=O` (centres unmarked) [Ia, 4-demethoxy-3′-deamino-3′-aziridinyl-4′-methansulfonyl daunorubicin]?
A: ILS % (increase in life span) [1, 5]: 92%; LTS (Long Term Survivors >60 days) [1, 5]: 0/10; Tox (number of toxic deaths/number of mice) [1, 5]: without toxicity and 0/10; ILS % (increase in life span) [1, 6]: 108%; LTS (Long Term Survivors >60 days) [1, 6]: 0/10; Tox (number of toxic deaths/number of mice) [1, 6]: without toxicity and 0/10; Tox (number of toxic deaths/number of mice) ([2]; Ia 2.1 mg/kg/day i.v. days 1, 5, 9): 0/20; ILS % (increase in life span) ([2]; Ia 2.1 mg/kg/day i.v. days 1, 5, 9, P388 10^4/mouse intracranially day 0): 44%; Tox (number of toxic deaths/number of mice) ([2]; Ia 2.7 mg/kg/day i.v. days 1, 5, 9): 1/20; ILS % (increase in life span) ([2]; Ia 2.7 mg/kg/day i.v. days 1, 5, 9 (optimal cumulative dose 8.1 mg/kg)): 46%; crossing of the blood brain barrier [3]: crosses the blood brain barrier
